Where two headings read alike, the source gives them in different places.
Tests used:
[1] = biological target: T1, β1,3-N-acetylglucosaminyl transferase (G7) (Homo sapiens, UniProt Q9C0J1); assay: Substrate specificity of G7 with pyridylaminated oligosaccharides; assay type: biochemical; settings: 16 hours; for Relative activity (%): pyridylaminated substrate, 37° C., activity for LNnT defined as 100%
T1 construct: made in house; host or cells: Sf21 insect cells infected with recombinant baculovirus from pVL1393-F2G7
T1 sequence (Q9C0J1 56-378): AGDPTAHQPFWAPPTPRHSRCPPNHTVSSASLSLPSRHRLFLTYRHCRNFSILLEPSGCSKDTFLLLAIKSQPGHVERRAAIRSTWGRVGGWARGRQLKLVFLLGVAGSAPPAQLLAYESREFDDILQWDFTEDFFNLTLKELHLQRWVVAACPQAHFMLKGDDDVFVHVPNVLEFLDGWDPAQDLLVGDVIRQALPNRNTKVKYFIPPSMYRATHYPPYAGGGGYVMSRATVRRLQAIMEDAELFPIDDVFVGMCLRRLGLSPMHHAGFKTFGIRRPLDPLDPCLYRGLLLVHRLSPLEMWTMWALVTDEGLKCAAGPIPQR
Description: (§1) The method shown in Example 8 was used as the activity measuring method. Specifically, after the reaction at 37° C. for 14.5 hours in 30 μl of an assay solution [200 mmol/l of MOPS (pH 7.5), 20 mmol/l of UDP-GlcNAc (SIGMA), 20 mmol/l of MnCl2, 50 μmol/l of pyridylaminated sugar chain substrate and 15 μl of the above eluate], products were detected by HPLC. As substrates, LNnT, lacto-N-tetraose (Galβ1-3GlcNAcβ1-3Galβ1-4Glc, hereinafter referred to as “LNT”), lacto-N-fucopentaose II (Galβ1-3(Fucα1-4)GlcNAcβ1-3Galβ1-4Glc, hereinafter referred to as “LNFP-II”), lacto-N-fucopentaose III (Galβ1-4(Fucα1-3)GlcNAcβ1-3Galβ1-4Glc, hereinafter referred to as “LNFP-III”), lacto-N-fucopentaose V (Galβ1-3GlcNAcβ1-3Galβ1-4(Fucα1-3)Glc, hereinafter referred to as “LNFP-V”) and lacto-N-difucohexaose II (Galβ1-3(Fucα1-4)GlcNAcβ1-3Galβ1-4(Fucα1-3)Glc, hereinafter referred to as “LNDFH-II”) (all manufactured by Oxford Glycosystems) were used after fluorescently labeling them with aminopyridine. Fluorescence labeling of these substrates were carried out in accordance with the usual method [Agric. Biol. Chem., 54, 2169 (1990)].
(§2) For each substrate, the reaction was carried using the assay solution with or without UDP-GlcNAc (sugar donor), and then HPLC was carried out and peaks appeared only in the assay solution containing UDP-GlcNAc were defined as products.
(§3) The assay solution after completion of the reaction was treated at 100° C. for 5 minutes and then centrifuged at 10,000×g for 5 minutes, and a portion (5 μl) of the thus obtained supernatant was applied to HPLC.
(§4) The HPLC was carried out by using TSK-gel ODS-80Ts column (4.6×300 mm; Tosoh); 0.02 mol/l ammonium acetate buffer (pH 4.0) was used as the eluate at an elution temperature of 50° C. and at a flow rate of 0.5 ml/min.
(§5) Products were detected by using a fluorescence spectrum photometer FP-920 (JASCO Corporation) (excitation wavelength 320 nm, radiation wavelength 400 nm).
Examination of the substrate specificity of a β1,3-N-acetylglucosaminyl transferase (G7) was carried out using the FLAG peptide-fused G7 polypeptide purified in Example 17.
Substrate specificity of the FLAG peptide-fused G7 polypeptide was examined by the method shown in Example 11(1). The reaction was carried out at 37° C. for 16 hours.

[2] = biological target: T2, β1,3-N-acetylglucosaminyl transferase (G3) (Homo sapiens, UniProt Q9NY97); assay: Substrate specificity of G3 with pyridylaminated oligosaccharides; assay type: biochemical; settings: 2 hours; for Relative activity (%): pyridylaminated substrate, 37° C., activity on LNnT defined as 100%
T2 construct: made in house; host or cells: Sf21 insect cells infected with recombinant baculovirus from pVL1393-F2G3
T2 sequence (Q9NY97 31-397): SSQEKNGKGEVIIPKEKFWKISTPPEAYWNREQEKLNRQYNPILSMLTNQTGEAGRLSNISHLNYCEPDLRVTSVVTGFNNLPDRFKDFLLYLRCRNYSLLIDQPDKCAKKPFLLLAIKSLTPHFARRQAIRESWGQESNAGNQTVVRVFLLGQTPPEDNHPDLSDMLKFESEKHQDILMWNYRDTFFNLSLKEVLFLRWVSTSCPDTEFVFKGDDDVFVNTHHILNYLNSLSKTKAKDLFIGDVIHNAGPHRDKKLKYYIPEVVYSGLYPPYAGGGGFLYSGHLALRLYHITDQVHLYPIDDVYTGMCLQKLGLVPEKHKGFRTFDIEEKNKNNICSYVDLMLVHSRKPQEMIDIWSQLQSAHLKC
Description: as §1, §2, §3, §4, §5
Substrate specificity of a β1,3-N-acetylglucosaminyl transferase (G3) was examined using the FLAG peptide-fused G3 polypeptide purified in Example 14.
Substrate specificity of the FLAG peptide-fused G3 polypeptide was examined by the method shown in Example 11(1). The reaction was carried out at 37° C. for 2 hours.

β3GnT = biological target: T3, β3GnT (Homo sapiens, UniProt Q9NY97); settings: reported values, Proc. Natl. Acad. Sci. USA, 96, 406 (1999), cited from earlier work
T3 sequence (Q9NY97 1-397): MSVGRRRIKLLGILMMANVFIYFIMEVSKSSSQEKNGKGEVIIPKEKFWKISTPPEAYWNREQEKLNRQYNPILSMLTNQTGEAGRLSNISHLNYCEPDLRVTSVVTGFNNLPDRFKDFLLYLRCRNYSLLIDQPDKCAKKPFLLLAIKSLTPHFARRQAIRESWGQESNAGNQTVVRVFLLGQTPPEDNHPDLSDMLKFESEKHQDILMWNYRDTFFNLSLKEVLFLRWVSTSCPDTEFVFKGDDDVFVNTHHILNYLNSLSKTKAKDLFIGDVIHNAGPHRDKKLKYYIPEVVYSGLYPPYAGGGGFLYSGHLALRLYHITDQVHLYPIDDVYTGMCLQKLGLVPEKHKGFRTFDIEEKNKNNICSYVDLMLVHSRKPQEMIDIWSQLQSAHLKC

[3] = pyridylaminated LNnT as substrate

| conversion efficiency of the substrate into the product [1, 3] [%] | Relative activity (%) [1] [%] | conversion efficiency of the substrate into the product [2, 3] [%] | Relative activity (%) [2] [%] | SMILES | Relative activity (%) β3GnT (β3GnT; Table 4) [%] | Relative activity (%) β3GnT (β3GnT; Table 6) [%] |
| --- | --- | --- | --- | --- | --- | --- |
| 3.76 | 100 | 82.5 | 100 | CC(=O)N[C@H]1[C@H](O[C@H]2[C@@H](O)[C@@H](CO)O[C@@H](O[C@H]3[C@H](O)[C@@H](O)C(O)O[C@@H]3CO)[C@@H]2O)O[C@H](CO)[C@@H](O[C@@H]2O[C@H](CO)[C@H](O)[C@H](O)[C@H]2O)[C@@H]1O (mixture of isomers) [LNnT, lacto-N-neotetraose] | 100 | 100 |
| – | 7.6 | – | 3.7 | CC(=O)N[C@H]1[C@H](O[C@H]2[C@@H](O)[C@@H](CO)O[C@@H](O[C@H]3[C@H](O)[C@@H](O)C(O)O[C@@H]3CO)[C@@H]2O)O[C@H](CO)[C@@H](O)[C@@H]1O[C@@H]1O[C@H](CO)[C@H](O)[C@H](O)[C@H]1O (stereo partly shown) [LNT, lacto-N-tetraose] | 6 | 6 |

— patent publication US7972815B2, “Method of producing sugar chain using human G4 polypeptide” (Kyowa Hakko Kirin Co., Ltd., priority 1999, dated 2011)
